Assay results as given in PMC11519908, “Luminescent Ln(III)-Metallopeptide Sensors for Monitoring Pseudomonas aeruginosa Elastase B Activity in Complex Biological Media” (ACS Sensors, 2024).

What was measured:
[1] = tested on: supernatants from P. aeruginosa mutant strains deficient in LasB (LasB1, LasB2); conditions: pH 8
[2] = tested on: supernatants from the LasB-deficient P. aeruginosa mutants; conditions: P1[Tb]: 0.5 mM probe, 50 mM CaCl2, HEPES buffer, 9 µL supernatant, RT, 1 h before injection

Substance: EGLAEW [P1[Tb]]
- change of luminescence over time with LasB-deficient P. aeruginosa supernatants [1]: no changes in the luminescence
- integrity of probe with LasB-deficient P. aeruginosa supernatants (HPLC-MS) [2]: remained intact
